Measurements reported in ChEMBL document CHEMBL4354883, “Design, Synthesis, and Biological Evaluation of HSP90 Inhibitor-SN38 Conjugates for Targeted Drug Accumulation” (J Med Chem, 2020).
The source made the active and inactive calls. The rule behind the calls is not given here.

How the values were obtained:
[1] = Drug uptake in human A549 cells assessed as blue fluorescence at 5 uM after 12 hrs by confocal laser scanning microscopic analysis; type: ADME, cell-based; settings: a549, 12 h
[2] = Metabolic stability in human liver microsomes assessed as compound remaining at 1 uM preincubated for 5 mins followed by NADPH addition and measured after 60 mins by LC-MS/MS analysis; type: ADME, Microsome; settings: read-out: Stability
[3] = test system: A549; assay: Downregulation of TOP1 expression in human A549 cells after 24 hrs by Western blot analysis; type: functional, cell-based
[4] = Half life of compound in PBS buffer at pH 7.4 at 50 uM by HPLC analysis; type: physicochemical
[5] = test system: HCT-116; assay: Antitumor activity against human HCT116 cells xenografted in mouse assessed as tumor weight at 50 mg/kg, iv for 5 consecutive days per week and measured every 3 to 4 days up to 14 days (reference value: 1.73 +/- 0.53 g); type: functional
[6] = Drug uptake in human A549 cells assessed as maximum emission peaks at 430 nm at 5 uM by fluorescence emission spectral analysis; type: ADME, cell-based; settings: a549, 5 µM
[7] = Intrinsic clearance in human liver microsomes at 1 uM preincubated for 5 mins followed by NADPH addition and measured up to 360 mins by LC-MS/MS analysis; type: ADME, Microsome; settings: 6 h
[8] = Half life in BALB/c mouse at 50 mg/kg, iv after 5 to 24 hrs by LC-MS/MS analysis; type: ADME, organism-based; settings: in vivo
[9] = Drug uptake in human A549 cells assessed as endocytosis-mediated total cellular drug internalization at 5 uM after 12 hrs by LC-MS/MS analysis relative to SN38; type: ADME, cell-based; settings: a549, 12 h
[10] = test system: L02; assay: Cytotoxicity agains human HL7702 cells assessed as reduction in cell viability after 72 hrs by SRB assay; type: cell-based; settings: L02, 72 h
[11] = test system: HCT-116; assay: Downregulation of TOP1 expression in human HCT116 cells after 24 hrs by Western blot analysis; type: functional, cell-based
[12] = Drug uptake in human A549 cells assessed as eHSP90-mediated total cellular drug internalization at 5 uM after 12 hrs by LC-MS/MS analysis; type: ADME, cell-based; settings: a549, 12 h
[13] = test system: HCT-116; assay: Antitumor activity against human HCT116 cells xenografted in mouse assessed as reduction in tumor growth at 50 mg/kg, iv for 5 consecutive days per week and measured every 3 to 4 days up to 14 days; type: functional, organism-based
[14] = test system: A549; assay: Induction of cell cycle arrest in human A549 cells assessed as accumulation at G2/M phase after 24 hrs by RNase A/PI-staining based flow cytometric analysis; type: functional
[15] = test system: A549; assay: Ratio of prodrug release in human A549 cells assessed as increase in 7-ethyl-10-hydroxycamptothecin level at 5 uM after 12 hrs by LC-MS/MS analysis to prodrug release in human A549 cells assessed as increase in 7-ethyl-10-hydroxycamptothecin level at 5 uM after 1 hr by LC-MS/MS analysis; type: ADME, cell-based; settings: a549, 5 µM
[16] = test system: MIA PaCa-2; assay: Antiproliferative activity against human MIAPaCa2 cells assessed as reduction in cell viability after 72 hrs by SRB assay; type: functional, cell-based; settings: MIA PaCa-2, 72 h
[17] = test system: CAPAN-1; assay: Induction of cell cycle arrest in human Capan1 cells assessed as accumulation at G2/M phase after 24 hrs by RNase A/PI-staining based flow cytometric analysis; type: functional
[18] = Half life in human plasma at 25 uM by HPLC analysis; type: ADME, cell-free
[19] = test system: CAPAN-1; assay: Antiproliferative activity against human Capan1 cells assessed as reduction in cell viability after 72 hrs by SRB assay; type: functional, cell-based; settings: CAPAN-1, 72 h
[20] = test system: A549; assay: Antiproliferative activity against human A549 cells assessed as reduction in cell viability after 72 hrs by SRB assay; type: functional, cell-based; settings: A549, 72 h
[21] = Toxicity in mouse xenografted with human HCT116 cells assessed as body weight loss at 50 mg/kg, iv for 5 consecutive days per week and measured every 3 to 4 days up to 14 days relative to control; type: organism-based; settings: in vivo
[22] = test system: HCT-116; assay: Induction of cell cycle arrest in human HCT116 cells assessed as accumulation at G2/M phase after 24 hrs by RNase A/PI-staining based flow cytometric analysis; type: functional
[23] = target: Heat shock protein HSP 90-alpha (Homo sapiens, UniProt P07900); assay: biochemical
Description: Inhibition of recombinant human full length HSP90 alpha expressed in Escherichia coli cells after 1 hr by fluorescence polarization assay

[24] = Half life in human liver microsomes at 1 uM preincubated for 5 mins followed by NADPH addition and measured up to 360 mins by LC-MS/MS analysis; type: ADME, Microsome
[25] = Drug uptake in human A549 cells assessed as blue shift in absorption spectrum at 5 uM by UV-visible absorption spectral analysis; type: ADME, cell-based; settings: a549, 5 µM
[26] = test system: HCT-116; assay: Antitumor activity against human HCT116 cells xenografted in mouse assessed as reduction in tumor volume at 50 mg/kg, iv for 5 consecutive days per week and measured every 3 to 4 days up to 14 days by microcaliper analysis relative to control; type: functional
[27] = Half life of compound in PBS buffer at pH 6.0 at 50 uM by HPLC analysis; type: physicochemical
[28] = Clearance in BALB/c mouse at 50 mg/kg, iv after 5 to 24 hrs by LC-MS/MS analysis; type: ADME, organism-based; settings: in vivo
[29] = Drug uptake in human A549 cells assessed as endocytosis-mediated total cellular drug internalization at 5 uM after 12 hrs by LC-MS/MS analysis relative to irinotecan; type: ADME, cell-based; settings: a549, 12 h
[30] = Half life in mouse plasma at 25 uM by HPLC analysis; type: ADME, cell-free
[31] = AUC(0 to infinity) in BALB/c mouse at 50 mg/kg, iv after 5 to 24 hrs by LC-MS/MS analysis; type: ADME, organism-based; set-up: dose 50 mg/kg, route intravenous, time infinity; settings: in vivo
[32] = target: Heat shock protein HSP90 (Homo sapiens, UniProt P07900+P08238); assay: Drug uptake in human A549 cells assessed as eHSP90-mediated drug internalization by measuring blue fluorescence in PBS solution at 5 uM after 1 to 12 hrs by confocal laser scanning microscopic analysis; type: ADME, cell-based; settings: a549, 5 µM, TDE = time-dependent effect
[33] = test system: HCT-116; assay: Antiproliferative activity against human HCT116 cells assessed as reduction in cell viability after 72 hrs by SRB assay; type: functional, cell-based; settings: HCT-116, 72 h
[34] = Apparent volume of distribution at steady state in BALB/c mouse at 50 mg/kg, iv after 5 to 24 hrs by LC-MS/MS analysis; type: ADME, organism-based; settings: in vivo, read-out: Vdss(app)

Compound	Drug uptake [1]	remaining at 1 h, 1 µM [2]	TOP1 downregulation [3]	half-life at 50 µM [4]	Activity [5]	Drug uptake [6]	CLH [7]	half-life [8]	fold change (FC) [9]	IC50 [10]	inhibition [11]	Drug uptake [12]	Activity [13]	Activity [14]	Ratio [15]	IC50 [16]	Activity [17]	half-life at 25 µM [18]	IC50 [19]	IC50 [20]	also measured
CCc1c2c(nc3ccc(OC(=O)N4CCC(NC(=O)c5noc(-c6cc(C(C)C)c(O)cc6O)c5-c5ccc(CN6CCOCC6)cc5)CC4)cc13)-c1cc3c(c(=O)n1C2)COC(=O)[C@]3(O)CC	Active	87%	Dose-dependent effect	> 24 h	0.47 g	Active	4.9 mL/min/kg	1.72 h	1.6 to 1.9	7360 nM	Dose-dependent effect	Active	Active	Dose-dependent effect	3.7	644 nM	Dose-dependent effect	> 24 h	6800 nM	1110 nM	Activity [21]: < 20%; Activity [22]: Dose-dependent effect; IC50 [23]: 164 nM; half-life at 1 µM [24]: 2.6 h; Drug uptake [25]: Active; T/C [26]: 33.8%; half-life at 50 µM [27]: > 24 h; clearance [28]: 6.91 mL/min/kg; fold change (FC) [29]: 2.8 to 3.8; half-life at 25 µM [30]: > 24 h; AUC(0-inf) [31]: 172 µg·h/mL; Drug uptake [32]: Tde; IC50 [33]: 614 nM; Vd [34]: 0.103 L/kg
CCc1c2c(nc3ccc(O)cc13)-c1cc3c(c(=O)n1C2)COC(=O)[C@@]3(CC)OC(=O)CNC(=O)c1noc(-c2cc(C(C)C)c(O)cc2O)c1-c1ccc(CN2CCOCC2)cc1	Active	80%	Dose-dependent effect	10 h	0.32 g	Active	5.7 mL/min/kg	1.31 h	1.6 to 1.9	6870 nM	Dose-dependent effect	Active	Active	Dose-dependent effect	4.3	46 nM	Dose-dependent effect	13 h	36 nM	56 nM	Activity [21]: < 20%; Activity [22]: Dose-dependent effect; IC50 [23]: 72 nM; half-life at 1 µM [24]: 2.1 h; Drug uptake [25]: Active; T/C [26]: 16.7%; half-life at 50 µM [27]: > 24 h; clearance [28]: 5.81 mL/min/kg; fold change (FC) [29]: 2.8 to 3.8; half-life at 25 µM [30]: 10.5 h; AUC(0-inf) [31]: 148 µg·h/mL; Drug uptake [32]: Tde; IC50 [33]: 22 nM; Vd [34]: 0.101 L/kg
